Data published in patent US9598423B2 (BRISTOL-MYERS SQUIBB COMPANY, priority 2013, dated 2017).

How the values were obtained:
CK1δ = CK1δ (Homo sapiens (Human), UniProt P48730); assay: CK1δ kinase assay (Caliper LABCHIP electrophoretic separation of fluoresceinated peptide substrate and product); assay type: biochemical; details: 200 pM CK1δ, 50 μM ATP, 1.5 μM peptide substrate, 22 hours at room temperature; read-out: CK1δ (IC50)
In short: (§1)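 Each reaction was incubated 22 hours at room temperature and terminated with EDTA. Read-out was microfluidic electrophoretic separation of fluoresceinated substrate and phospho-product.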

CK1ε = CK1ε (Homo sapiens (Human), UniProt P49674); assay: CK1ε kinase assay (Caliper LABCHIP electrophoretic separation of fluoresceinated peptide substrate and product); assay type: biochemical; details: 200 pM CK1ε, 50 μM ATP, 1.5 μM peptide substrate, 22 hours at room temperature; read-out: CK1ε (IC50)
In short: as §1

CK1ε, sequence (P49674 whole entry): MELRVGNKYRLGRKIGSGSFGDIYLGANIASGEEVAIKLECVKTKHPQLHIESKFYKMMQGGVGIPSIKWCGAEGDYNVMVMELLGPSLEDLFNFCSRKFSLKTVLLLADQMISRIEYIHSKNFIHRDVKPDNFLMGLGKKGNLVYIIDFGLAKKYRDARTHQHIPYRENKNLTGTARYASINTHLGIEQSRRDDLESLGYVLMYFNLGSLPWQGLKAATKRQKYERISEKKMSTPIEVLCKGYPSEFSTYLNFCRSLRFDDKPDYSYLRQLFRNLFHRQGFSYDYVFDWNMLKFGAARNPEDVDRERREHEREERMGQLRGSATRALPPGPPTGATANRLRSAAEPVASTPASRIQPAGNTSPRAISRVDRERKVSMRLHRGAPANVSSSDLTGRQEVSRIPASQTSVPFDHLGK
CK1δ, sequence (P48730 whole entry): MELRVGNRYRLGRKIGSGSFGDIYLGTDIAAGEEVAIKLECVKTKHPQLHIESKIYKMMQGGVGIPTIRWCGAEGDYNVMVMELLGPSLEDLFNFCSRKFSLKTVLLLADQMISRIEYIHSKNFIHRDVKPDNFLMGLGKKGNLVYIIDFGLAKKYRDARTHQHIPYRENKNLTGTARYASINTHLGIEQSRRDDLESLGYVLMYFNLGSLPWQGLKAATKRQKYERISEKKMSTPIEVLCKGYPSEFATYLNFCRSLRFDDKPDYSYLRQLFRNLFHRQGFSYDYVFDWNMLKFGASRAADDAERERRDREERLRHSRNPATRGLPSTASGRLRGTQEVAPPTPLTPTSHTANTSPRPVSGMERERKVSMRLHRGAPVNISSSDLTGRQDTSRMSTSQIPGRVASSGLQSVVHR

SMILES	IC50 (CK1δ) [nM]	IC50 (CK1ε) [nM]
NC(=O)c1c(-c2ccc(F)c(Cl)c2)nn2c1CN(C(=O)Nc1ccc(F)c(C(F)(F)F)c1)CC2 [Compound 190, 2-(3-Chloro-4-fluorophenyl)-N^5-(4-fluoro-3-(trifluoromethyl)phenyl)-6,7-dihydropyrazolo[1,5-a] pyrazine-3,5(4H)-dicarboxamide]	0.01 to 10	0.01 to 10
N#Cc1ccc(NC(=O)N2Cc3c(C(N)=O)c(-c4ccc(F)c(Cl)c4)nn3C3(COC3)C2)cc1 [Compound A88, 2′-(3-Chloro-4-fluorophenyl)-N^5′-(4-cyanophenyl)-4′H-spiro[oxetane-3,7′-pyrazolo[1,5-a]pyrazine]-3′,5′(6′H)-dicarboxamide]	0.01 to 10	0.01 to 10
NC(=O)c1c(-c2cccc(Cl)c2)nn2c1CN(C(=O)Nc1cc(Cl)cc(Cl)c1)CC2CO (stereo not drawn) [Compound A4, 2-(3-Chlorophenyl)-N^5-(3,5-dichlorophenyl)-7-(hydroxymethyl)-6,7-dihydropyrazolo[1,5-a]pyrazine-3,5(4H)-dicarboxamide]	0.01 to 10	0.01 to 10
N#Cc1ccc(NC(=O)N2CCn3nc(-c4cncc(Cl)c4)c(C(N)=O)c3C2)cc1 [Compound 270, 2-(5-Chloropyridin-3-yl)-N^5-(4-cyanophenyl)-6,7-dihydropyrazolo[1,5-a]pyrazine-3,5(4H)-dicarboxamide]	0.01 to 10	0.01 to 10
NC(=O)c1c(-c2cccc(F)c2)nn2c1CN(C(=O)NC13CC4CC(CC(C4)C1)C3)CC2 [Compound 22, N^5-(Adamantan-1-yl)-2-(3-fluorophenyl)-6,7-dihydropyrazolo[1,5-a]pyrazine-3,5(4H)-dicarboxamide]	0.01 to 10	0.01 to 10
NC(=O)c1c(-c2ccc(Cl)c(Cl)c2)nn2c1CN(C(=O)Nc1ccc(OC(F)(F)F)cc1)CC2 [Compound 213, 2-(3,4-Dichlorophenyl)-N^5-(4-(trifluoromethoxy)phenyl)-6,7-dihydropyrazolo[1,5-a] pyrazine-3,5(4H)-dicarboxamide]	0.01 to 10	0.01 to 10
N#Cc1ccc(NC(=O)N2CCn3nc(-c4ccc5c(c4)OCO5)c(C(N)=O)c3C2)cc1 [Compound 277, 2-(Benzo[d][1,3]dioxol-5-yl)-N^5-(4-cyanophenyl)-6,7-dihydropyrazolo[1,5-a] pyrazine-3,5(4H)-dicarboxamide]	10 to 100	0.01 to 10
COc1cc(NC(=O)N2CCn3nc(-c4cccc(F)c4)c(C(N)=O)c3C2)cc(OC)c1 [Compound 56, N^5-(3,5-Dimethoxyphenyl)-2-(3-fluorophenyl)-6,7-dihydropyrazolo[1,5-a]pyrazine-3,5(4H)-dicarboxamide]	0.01 to 10	0.01 to 10
NC(=O)c1c(-c2cccc(F)c2)nn2c1CN(C(=O)Nc1ccc(Cl)nc1)CC2 [Compound 85, N^5-(6-Chloropyridin-3-yl)-2-(3-fluorophenyl)-6,7-dihydropyrazolo[1,5-a]pyrazine-3,5(4H)-dicarboxamide]	0.01 to 10	0.01 to 10
COc1cccc(-c2nn3c(c2C(N)=O)CN(C(=O)NC(C)(C)C)CC3)c1 [Compound 109, N^5-(tert-Butyl)-2-(3-methoxyphenyl)-6,7-dihydropyrazolo[1,5-a]pyrazine-3,5(4H)-dicarboxamide]	0.01 to 10	0.01 to 10
NC(=O)c1c(-c2ccc(F)c(Cl)c2)nn2c1CN(C(=O)Nc1cccc(OC(F)(F)F)c1)CC2 [Compound 184, 2-(3-Chloro-4-fluorophenyl)-N^5-(3-(trifluoromethoxy)phenyl)-6,7-dihydropyrazolo[1,5-a] pyrazine-3,5(4H)-dicarboxamide]	0.01 to 10	0.01 to 10
Cc1cc(Cl)cc(-c2nn3c(c2C(N)=O)CN(C(=O)Nc2ccc(C#N)cc2)CC3)c1 [Compound A62, 2-(3-Chloro-5-methylphenyl)-N^5-(4-cyanophenyl)-6,7-dihydropyrazolo[1,5-a]pyrazine-3,5(4H)-dicarboxamide]	0.01 to 10	0.01 to 10
CC(C)(C)c1cc(NC(=O)N2CCn3nc(-c4ccc(F)c(Cl)c4)c(C(N)=O)c3C2)ccc1C#N [Compound A51, N^5-(3-(tert-Butyl)-4-cyanophenyl)-2-(3-chloro-4-fluorophenyl)-6,7-dihydropyrazolo[1,5-a]pyrazine-3,5(4H)-dicarboxamide]	0.01 to 10	0.01 to 10
NC(=O)c1c(-c2cccc(F)c2)nn2c1CN(C(=O)Nc1ccc(C(F)(F)F)cc1)CC2 [Compound 21, 2-(3-Fluorophenyl)-N^5-(4-(trifluoromethyl)phenyl)-6,7-dihydropyrazolo[1,5-a]pyrazine-3,5(4H)-dicarboxamide]	0.01 to 10	0.01 to 10
Cc1cc(-c2nn3c(c2C(N)=O)CN(C(=O)Nc2ccc4c(c2)CS(=O)(=O)C4)CC3)ccc1F [Compound 246, N^5-(2,2-Dioxido-1,3-dihydrobenzo[c]thiophen-5-yl)-2-(4-fluoro-3-methylphenyl)-6,7-dihydropyrazolo[1,5-a] pyrazine-3,5(4H)-dicarboxamide]	0.01 to 10	0.01 to 10
Cc1cc(NC(=O)N2CCn3nc(-c4cccc(Cl)c4)c(C(N)=O)c3C2)ccc1C#N [Compound A38, 2-(3-Chlorophenyl)-N^5-(4-cyano-3-methylphenyl)-6,7-dihydropyrazolo[1,5-a]pyrazine-3,5(4H)-dicarboxamide]	0.01 to 10	0.01 to 10
N#Cc1ccc(NC(=O)N2CCn3nc(-c4cc(F)c5cn[nH]c5c4)c(C(N)=O)c3C2)cc1F [Compound 324, N^5-(4-Cyano-3-fluorophenyl)-2-(4-fluoro-1H-indazol-6-yl)-6,7-dihydropyrazolo[1,5-a]pyrazine-3,5(4H)-dicarboxamide]	0.01 to 10	0.01 to 10
CC1Cn2nc(-c3ccc(F)c(Cl)c3)c(C(N)=O)c2CN1C(=O)Nc1ccc(C#N)cc1 (single isomer, unassigned) [Compound 330, 2-(3-Chloro-4-fluorophenyl)-N^5-(4-cyanophenyl)-6-methyl-6,7-dihydropyrazolo[1,5-a]pyrazine-3,5(4H)-dicarboxamide]	0.01 to 10	0.01 to 10
CSc1cccc(-c2nn3c(c2C(N)=O)CN(C(=O)Nc2ccc(C#N)cc2)CC3)c1 [Compound 281, N^5-(4-Cyanophenyl)-2-(3-(methylthio)phenyl)-6,7-dihydropyrazolo[1,5-a] pyrazine-3,5(4H)-dicarboxamide]	0.01 to 10	0.01 to 10
Cc1cc(-c2nn3c(c2C(N)=O)CN(C(=O)Nc2ccc4ncsc4c2)CC3)ccc1F [Compound 241, N^5-(Benzo[d]thiazol-6-yl)-2-(4-fluoro-3-methylphenyl)-6,7-dihydropyrazolo[1,5-a] pyrazine-3,5(4H)-dicarboxamide]	0.01 to 10	0.01 to 10
Cc1ccc(NC(=O)N2CCn3nc(-c4ccc(F)c(Cl)c4)c(C(N)=O)c3C2)cc1C [Compound 175, 2-(3-Chloro-4-fluorophenyl)-N^5-(3,4-dimethylphenyl)-6,7-dihydropyrazolo[1,5-a] pyrazine-3,5(4H)-dicarboxamide]	0.01 to 10	0.01 to 10
NC(=O)c1c(-c2cccc(F)c2)nn2c1CN(C(=O)Nc1cc(F)cc(F)c1)CC2 [Compound 31, N^5-(3,5-Difluorophenyl)-2-(3-fluorophenyl)-6,7-dihydropyrazolo[1,5-a]pyrazine-3,5(4H)-dicarboxamide]	0.01 to 10	0.01 to 10
Cc1n[nH]c2c(Cl)cc(-c3nn4c(c3C(N)=O)CN(C(=O)Nc3ccc(C#N)c(Cl)c3)CC4)cc12 [compound 321]	0.01 to 10	0.01 to 10
NC(=O)c1c(-c2cccc(F)c2)nn2c1CN(C(=O)Nc1ccc(Cl)c(Cl)c1)CC2 [Compound 49, N^5-(3,4-Dichlorophenyl)-2-(3-fluorophenyl)-6,7-dihydropyrazolo[1,5-a]pyrazine-3,5(4H)-dicarboxamide]	0.01 to 10	0.01 to 10
NC(=O)c1c(-c2cccc(Cl)c2)nn2c1CN(C(=O)Nc1ccc(Cl)c(Cl)c1)CC2 [Compound 164, 2-(3-Chlorophenyl)-N^5-(3,4-dichlorophenyl)-6,7-dihydropyrazolo[1,5-a] pyrazine-3,5(4H)-dicarboxamide]	0.01 to 10	0.01 to 10
CC(=O)N1CC2(C1)CN(C(=O)Nc1ccc(C#N)cc1)Cc1c(C(N)=O)c(-c3ccc(F)c(Cl)c3)nn12 [Compound A89, 1-Acetyl-2′-(3-chloro-4-fluorophenyl)-N^5′-(4-cyanophenyl)-4′H-spiro[azetidine-3,7′-pyrazolo[1,5-a]pyrazine]-3′,5′(6′H)-dicarboxamide]	0.01 to 10	0.01 to 10
Cc1cc(F)cc(-c2nn3c(c2C(N)=O)CN(C(=O)Nc2ccc4ncsc4c2)CC3)c1 [Compound 225, N^5-(Benzo[d]thiazol-6-yl)-2-(3-fluoro-5-methylphenyl)-6,7-dihydropyrazolo[1,5-a] pyrazine-3,5(4H)-dicarboxamide]	0.01 to 10	0.01 to 10
COc1cc(Cl)cc(-c2nn3c(c2C(N)=O)CN(C(=O)NC(C)(C)C)CC3)c1 [Compound 152, N^5-(tert-Butyl)-2-(3-chloro-5-methoxyphenyl)-6,7-dihydropyrazolo[1,5-a]pyrazine-3,5(4H)-dicarboxamide]	0.01 to 10	0.01 to 10
N#Cc1ccc(NC(=O)N2CCn3nc(-c4ccc(F)c(Cl)c4)c(C(N)=O)c3C2)cc1Cl [Compound 203, N^5-(3-Chloro-4-cyanophenyl)-2-(3-chloro-4-fluorophenyl)-6,7-dihydropyrazolo[1,5-a]pyrazine-3,5(4H)-dicarboxamide]	0.01 to 10	0.01 to 10
NC(=O)c1c(-c2cccc(F)c2)nn2c1CN(C(=O)Nc1cc(C(F)(F)F)cc(C(F)(F)F)c1)CC2 [Compound 53, N^5-(3,5-Bis(trifluoromethyl)phenyl)-2-(3-fluorophenyl)-6,7-dihydropyrazolo[1,5-a]pyrazine-3,5(4H)-dicarboxamide]	0.01 to 10	0.01 to 10
